Measurements reported in the NIST ThermoML archive (doi:10.1016/j.jct.2015.11.010).
± gives the expanded uncertainty stated by the source.

Experiments:
[1] = Crystal; for mass density: 101.33 kPa, X-ray diffraction
[2] = molar enthalpy of vaporization or sublimation; conditions: 298.15 K; Crystal; Static calorimetry
[3] = Molar enthalpy of transition or fusion; conditions: Crystal; DSC
[4] = molar heat capacity at constant pressure; conditions: 101.33 kPa, Crystal, Small sample (50 mg) DSC

| mass density ([1]; 296 K) | Triple point temperature ([1]; DSC) | molar enthalpy [2] | Molar enthalpy of transition or fusion [3] | molar heat capacity at constant pressure ([4]; 298.15 K) | molar heat capacity at constant pressure ([4]; 303.15 K) | molar heat capacity at constant pressure ([4]; 308.15 K) | molar heat capacity at constant pressure ([4]; 313.15 K) | molar heat capacity at constant pressure ([4]; 318.15 K) | molar heat capacity at constant pressure ([4]; 323.15 K) | molar heat capacity at constant pressure ([4]; 328.15 K) | molar heat capacity at constant pressure ([4]; 333.15 K) | mass density ([1]; 150 K) | SMILES |
| --- | --- | --- | --- | --- | --- | --- | --- | --- | --- | --- | --- | --- | --- |
| 1424.1 ± 7 kg/m3 | 503.5 ± 0.8 K | 27.3 ± 0.335 kcal/mol | 4.18 ± 0.115 kcal/mol | 112 ± 7.7 J/K/mol | 112.4 ± 7.9 J/K/mol | 112.9 ± 7.9 J/K/mol | 112.6 ± 8.9 J/K/mol | 113.4 ± 8.6 J/K/mol | 114.3 ± 8.6 J/K/mol | 115.3 ± 8.6 J/K/mol | 116.5 ± 8.6 J/K/mol |  | Sc1ncc[nH]1 [2-mercaptoimidazole] |
|  |  |  |  |  |  |  |  |  |  |  |  | 1489.4 ± 7.3 kg/m3 | O.Sc1ncc[nH]1.Sc1ncc[nH]1 [2-mercaptoimidazole hemihydrate] |
